Key:
Format in all cases: physicochemical
[1] = Hygroscopicity study by Dynamic Vapor Sorption (DVS); details: 25° C.; for mass variation (humidity absorption, DVS): 90% relative humidity (RH); for behavior in DVS hygroscopicity study: RH 0 to 90%
Experimental: The Hygroscopicity study was carried out on samples of polymorphic crystalline forms F, B and E of sodium neridronate by measuring the humidity absorption kinetics, in a range of relative humidity (RH %) comprised between 0 and 90%, at the temperature of 25° C.

[2] = Stability study at 40° C. and 75% RH monitored by XRD; details: for stability of crystalline form over time (XRD): eight weeks observation
Experimental: The stability study was carried out on samples of crystalline polymorphic forms B, E, and the hemihydrate form F of sodium neridronate, stored in an environment characterized by 75% relative humidity (RH) and a temperature of 40° C.
The observation of the sample stability lasted for a period of eight weeks, during which once a week, […], an aliquot was taken from each sample and subjected to XRD analysis to observe any possible crystalline changes of the various samples over time.

[3] = Thermodynamic solubility test; details: buffer solution pH 7.4, 37° C., stirring about 500 rpm
Experimental: For this purpose, a dissolution test was carried out in a buffer solution at pH 7.4. The thermodynamic solubility evaluation was performed leaving the sample in the buffer solution, under magnetic stirring at about 500 rpm, for a period of 24 hours, at a temperature of 37° C.

| SMILES | mass variation (humidity absorption, DVS) [1] | behavior in DVS hygroscopicity study [1] | onset of conversion into crystalline hemihydrate form F (XRD) [2] | extent of conversion into form F at the end of the observation period (XRD) ([2]; eight weeks) | stability of crystalline form over time (XRD) [2] | thermodynamic solubility ([3]; 24 hours) | extent of conversion into form F after seven weeks (XRD) ([2]; seven weeks) | solubility thermodynamic at 24 h ([3]; buffer solution, 37 °C, pH 7.4, aqueous buffer, thermodynamic from solid) |
| --- | --- | --- | --- | --- | --- | --- | --- | --- |
| NCCCCCC(O)(P(=O)([O-])O)P(=O)(O)O.[Na+] [form B, sodium neridronate] | about 5% | hydrophilic behavior | begin to convert into the crystalline hemihydrate form F already after a week | only partially converted | not stable over time | 92.97 mg/mL | – | – |
| NCCCCCC(O)(P(=O)([O-])O)P(=O)(O)O.[Na+] [form E, sodium neridronate] | about 1% | hydrophilic behavior | begin to convert into the crystalline hemihydrate form F already after a week | – | not stable over time | – | completely converted into the crystalline hemihydrate form F | – |
| NCCCCCC(O)(P(=O)([O-])O)P(=O)(O)O.[Na+] [form F, sodium neridronate] | without any appreciable mass variation | hydrophobic behavior | – | – | stable even after eight weeks conditioning | – | – | 93.7 mg/mL |
